Structures can show the parent of a compound that is named as a salt. Where two headings read alike, the source gives them in different places. Marks after values point to notes of the source that are not given here.

Series [1] has as its target T1, human OCT1 (Homo sapiens, UniProt O15245).
T1 construct: host or cells: HEK293, baculovirus transduction (CMV promoter), transient
T1 sequence (O15245 1-554): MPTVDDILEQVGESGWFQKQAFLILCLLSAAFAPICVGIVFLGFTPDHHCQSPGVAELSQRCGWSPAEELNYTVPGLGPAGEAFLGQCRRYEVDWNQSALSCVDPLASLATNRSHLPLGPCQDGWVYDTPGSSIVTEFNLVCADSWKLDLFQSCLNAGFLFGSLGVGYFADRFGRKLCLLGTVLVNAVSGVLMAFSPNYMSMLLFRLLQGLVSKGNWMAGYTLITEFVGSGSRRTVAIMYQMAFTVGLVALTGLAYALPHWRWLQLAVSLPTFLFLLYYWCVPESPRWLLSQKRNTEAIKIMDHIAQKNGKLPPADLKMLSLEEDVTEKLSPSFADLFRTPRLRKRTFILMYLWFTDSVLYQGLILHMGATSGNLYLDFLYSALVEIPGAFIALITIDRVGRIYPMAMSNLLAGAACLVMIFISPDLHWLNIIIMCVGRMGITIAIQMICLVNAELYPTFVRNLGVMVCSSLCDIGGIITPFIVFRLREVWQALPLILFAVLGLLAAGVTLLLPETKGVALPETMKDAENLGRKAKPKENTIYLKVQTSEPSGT
The experiment in a line: Inhibition of OCT1-mediated ASP uptake in transduced HEK293 cells. The note with it: 50 µM anti-malarial, 10 µM ASP, 10 min, 37 °C; relative to solvent control fixed at 100%. The class given is cell-based. As for the experimental part: (§1) HEK293 cells were modified to transiently express (a combination of) human OCT1, OCT2, MATE1, MATE2-K, or eYFP. Briefly, cDNA of the respective genes was cloned downstream of a CMV promoter into a baculovirus, of which passage three was used to transduce HEK293 cells. These cells were seeded in poly-D-lysine coated 24- or 96-wells plates and grown in a 37 °C incubator at 5% CO2. Growth was initiated at ~ 25% confluency using 375 or 125 μL cell and complete medium (DMEM + GlutaMAX™-I supplemented with 10% fetal bovine serum) suspension per well, respectively. After 24 h, cells were transduced with 30 µL virus (10 µL virus + 20 µL complete medium in case of 96-wells plates) or 2 × 15 µL virus for cells that required simultaneous expression of two transporters. Finally, 195 µL sodium butyrate (45 µL for 96-wells plates) was added to a final concentration of 2 mM to enhance protein expression.
AMO (10 mM), ASP (1 mM), CQ (10 mM), PQ (10 mM) and PG (10 mM) were dissolved in MilliQ water. ART (10 mM), ATO (10 mM), DHA (10 mM), LUM (10 mM), MQ (10 mM), NMQ (20 mM), PYR (10 mM), QN (10 mM) were dissolved in DMSO. All compound stocks were stored at − 20 °C. Inhibition of OCT1- or OCT2-mediated ASP uptake by anti-malarials was performed in poly-D-lysine coated 96-wells plates 2 or 3 days following HEK293 cell transduction. In short, cells were washed with 125 µL 37 °C HBSS containing 10 mM HEPES, pH 7.4. Then, a 50 µL mixture of ASP (10 µM) and anti-malarial compound (25, 50 or 100 µM) in HBSS buffer (pH 7.4) was added to each well and incubated for 10 min at 37 °C. ASP transport was stopped by washing with 125 µL ice-cold HBSS-HEPES buffer supplemented with 0.5% BSA. Following a second wash with 125 µL ice-cold HBSS-HEPES buffer, cells were lysed with 125 µL 1 M NaOH and ASP was excited at a wavelength of 485 nm and fluorescence was detected at an emission wavelength of 535 nm using the Victor X3 multimode plate reader.
For each compound, a range of seven concentrations was used to determine the concentration at which ASP uptake was inhibited half maximally (IC50). At least three independent experiments (4 for QN) were performed for each drug in triplicate as described above. Inhibition curves were plotted by nonlinear regression analyses of the data using GraphPad Prism version 5.03. […] To generate the final dose–response inhibition curve per anti-malarial, percentage of uptake was averaged for each drug concentration per experiment and the resulting mean ± SEM corresponding to three or four independent experiments were plotted.

For series [2], the target named is T2, human OCT2 (Homo sapiens, UniProt O15244).
T2 construct: host or cells: HEK293, baculovirus transduction (CMV promoter), transient
T2 sequence (O15244 1-555): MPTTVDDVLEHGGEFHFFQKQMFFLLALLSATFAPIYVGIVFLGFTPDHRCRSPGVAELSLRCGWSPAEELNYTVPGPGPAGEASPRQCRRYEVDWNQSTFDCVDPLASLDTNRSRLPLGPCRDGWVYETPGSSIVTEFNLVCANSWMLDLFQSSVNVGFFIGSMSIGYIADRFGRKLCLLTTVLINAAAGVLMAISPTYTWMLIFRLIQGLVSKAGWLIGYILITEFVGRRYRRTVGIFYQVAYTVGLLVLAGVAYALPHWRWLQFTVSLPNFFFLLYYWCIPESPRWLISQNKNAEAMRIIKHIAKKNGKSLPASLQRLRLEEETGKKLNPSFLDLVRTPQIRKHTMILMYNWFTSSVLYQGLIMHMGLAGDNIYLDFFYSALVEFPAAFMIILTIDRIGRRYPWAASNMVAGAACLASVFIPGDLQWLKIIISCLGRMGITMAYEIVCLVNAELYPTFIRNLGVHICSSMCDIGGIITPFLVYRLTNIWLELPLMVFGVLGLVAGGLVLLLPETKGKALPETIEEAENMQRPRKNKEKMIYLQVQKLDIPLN
Briefly: Inhibition of OCT2-mediated ASP uptake in transduced HEK293 cells. Format: cell-based. As for the experimental part: as §1, with “Growth was initiated at ~ 25% confluency using 375 or 125 μL cell and complete medium (DMEM + GlutaMAX™-I supplemented with 10% fetal bovine serum) suspension per well, respectively.” left out
AMO (10 mM), ASP (1 mM), CQ (10 mM), PQ (10 mM) and PG (10 mM) were dissolved in MilliQ water. ART (10 mM), ATO (10 mM), DHA (10 mM), LUM (10 mM), MQ (10 mM), NMQ (20 mM), PYR (10 mM), QN (10 mM) were dissolved in DMSO. All compound stocks were stored at − 20 °C. Inhibition of OCT1- or OCT2-mediated ASP uptake by anti-malarials was performed in poly-D-lysine coated 96-wells plates 2 or 3 days following HEK293 cell transduction. In short, cells were washed with 125 µL 37 °C HBSS containing 10 mM HEPES, pH 7.4. […] ASP transport was stopped by washing with 125 µL ice-cold HBSS-HEPES buffer supplemented with 0.5% BSA.
For each compound, a range of seven concentrations was used to determine the concentration at which ASP uptake was inhibited half maximally (IC50). At least three independent experiments (4 for QN) were performed for each drug in triplicate as described above. […] To generate the final dose–response inhibition curve per anti-malarial, percentage of uptake was averaged for each drug concentration per experiment and the resulting mean ± SEM corresponding to three or four independent experiments were plotted.

The target in series [3] is T1, human OCT1. The experiment in a line: OCT1-mediated cellular import in transduced HEK293 cells (LC-MS/MS). Format: cell-based. The settings on record: 10 µM, 15 min, 37 °C. As for the experimental part:
as §1
HEK293 cells were seeded in 24-wells poly-D-lysine coated plates and transduced the subsequent day with OCT1 or OCT2 as described above. Three days following transduction, OCT1- or OCT2-mediated uptake of ten anti-malarials (AMO, ART, ATO, CQ, DHA, LUM, MQ, PQ, PG, and QN) was performed. NMQ served as a positive substrate for both OCT1 and OCT2 import. In short, cells were washed with 400 µL 37 °C HBSS-HEPES buffer followed by adding 150 µL HBSS buffer with 10 µM anti-malarial or NMQ to each well. After incubation for 15 min at 37 °C, import was stopped by washing with 400 µL ice-cold HBSS-HEPES buffer supplemented with 0.5% BSA. Following a second wash with 400 µL ice-cold HBSS-HEPES buffer, cells were lysed with 200 µL 50% (v/v) MeOH and 0.1% (v/v) formic acid (HCOOH) in water and samples were sent for quantification by mass spectrometry analysis (see “LC–MS/MS quantification of anti-malarials” section). […]
(§2) The affinity (KM) and maximum transport rate (Vmax) for OCT1 and OCT2 of PG were determined by analysing concentration-dependent uptake data from three independent experiments.
Import and export of PG and cycloguanil (CG) was assessed by single and double transduced HEK293 cells. […] Following the same procedure as for the cellular import assay described above, the import of 100 µM PG and CG was measured after 5 min incubation and data was plotted as mean pmol/mg/min ± SEM. […] Significant reduction in uptake (i.e. export by MATEs) was determined using ln transformation and a one-way repeated measures ANOVA with Dunnet’s post test.
Anti-malarial concentration in the cell lysates was quantified using an LC–MS/MS system consisting of a UPLC, a binary solvent manager, a vacuum degasser and an autosampler, coupled to a Xevo TQ-S micro triple quadrupole mass spectrometer. […]

The target in series [4] is T2, human OCT2. Briefly: OCT2-mediated cellular import in transduced HEK293 cells (LC-MS/MS). The settings on record: 10 µM, 15 min, 37 °C. Format: cell-based. As for the experimental part:
as §1
HEK293 cells were seeded in 24-wells poly-D-lysine coated plates and transduced the subsequent day with OCT1 or OCT2 as described above. Three days following transduction, OCT1- or OCT2-mediated uptake of ten anti-malarials (AMO, ART, ATO, CQ, DHA, LUM, MQ, PQ, PG, and QN) was performed. […] Following a second wash with 400 µL ice-cold HBSS-HEPES buffer, cells were lysed with 200 µL 50% (v/v) MeOH and 0.1% (v/v) formic acid (HCOOH) in water and samples were sent for quantification by mass spectrometry analysis (see “LC–MS/MS quantification of anti-malarials” section). […]
as §2
Import and export of PG and cycloguanil (CG) was assessed by single and double transduced HEK293 cells. […] Following the same procedure as for the cellular import assay described above, the import of 100 µM PG and CG was measured after 5 min incubation and data was plotted as mean pmol/mg/min ± SEM. […] Significant reduction in uptake (i.e. export by MATEs) was determined using ln transformation and a one-way repeated measures ANOVA with Dunnet’s post test. […]

For series [5] the following is noted: cited from earlier work.
A short description of series [6]: Maximum plasma concentration from in vivo pharmacokinetic studies after therapeutic dosing. The note with it: human, the literature Cmax (ng/mL) of Table 2 expressed in µM. An excerpt:
As Cmax the (geometric) mean or median maximum plasma concentrations obtained from previous in vivo pharmacokinetic studies after therapeutic dosing was used.

The conditions of series [7]: Ugandan children aged 5–13 years with uncomplicated malaria; (geometric) mean or median; cited from earlier work.
Substrate in series [8]: [H]/N=C(\N/C(=N/[H])Nc1ccc(Cl)cc1)NC(C)C
The experiment in a line: OCT1-mediated cellular import in transduced HEK293 cells (LC-MS/MS). The class given is cell-based, human. The note with it: other: 1 min incubation, 37 °C, 2.0–16 µM, pH 7.4. As for the experimental part: HEK293 cells were modified to transiently express (a combination of) human OCT1, OCT2, MATE1, MATE2-K, or eYFP. Briefly, cDNA of the respective genes was cloned downstream of a CMV promoter into a baculovirus, of which passage three was used to transduce HEK293 cells. These cells were seeded in poly-D-lysine coated 24- or 96-wells plates and grown in a 37 °C incubator at 5% CO2. Growth was initiated at ~ 25% confluency using 375 or 125 μL cell and complete medium (DMEM + GlutaMAX™-I supplemented with 10% fetal bovine serum) suspension per well, respectively. […]
HEK293 cells were seeded in 24-wells poly-D-lysine coated plates and transduced the subsequent day with OCT1 or OCT2 as described above. […] Following a second wash with 400 µL ice-cold HBSS-HEPES buffer, cells were lysed with 200 µL 50% (v/v) MeOH and 0.1% (v/v) formic acid (HCOOH) in water and samples were sent for quantification by mass spectrometry analysis (see “LC–MS/MS quantification of anti-malarials” section). […]
as §2
Import and export of PG and cycloguanil (CG) was assessed by single and double transduced HEK293 cells. […]

Setting [9] is: 50 µM anti-malarial, 10 µM ASP, 10 min, 37 °C, relative to solvent control fixed at 100%.

Regarding `COc1cc(NC(C)CCCN)c2ncccc2c1` (centres unmarked) [Primaquine, primaquine diphosphate], the “Relative ASP uptake (OCT1-mediated)” value on human OCT1 [1] came to 59 ± 3%. Further, the “Relative ASP uptake (OCT2-mediated)” value at human OCT2 [2] (setting [9]) was 60 ± 7%.
In the case of `C[C@@H]1CC[C@H]2[C@@H](C)C(=O)O[C@@H]3O[C@@]4(C)CC[C@@H]1[C@]32OO4` [Artemisinin, artemisinin], the “Relative ASP uptake (OCT2-mediated)” value at human OCT2 [2] (setting [9]) is reported as 61 ± 13%.
As to `OC(c1cc(C(F)(F)F)nc2c(C(F)(F)F)cccc12)C1CCCCN1` (centres unmarked) [Mefloquine, mefloquine hydrochloride], the “Relative ASP uptake (OCT1-mediated)” value at human OCT1 [1] is on record as 150 ± 21%.
As for `C=C[C@H]1C[N+]2(C)CC[C@H]1C[C@@H]2[C@@H](O)c1ccnc2ccc(OC)cc12` [NMQ, N-methyl-quinidine], the “Uptake by OCT1, percentage of mock-transduced control” value at human OCT1 [3] was “taken up”. Further, the “Uptake by OCT2, percentage of mock-transduced control” value at human OCT2 [4] is given as “taken up”.
`CCN(CC)Cc1cc(Nc2ccnc3cc(Cl)ccc23)ccc1O` [Amodiaquine, amodiaquine dihydrochloride dehydrate]: the Unbound fraction in series [5] is 0.1 [46]. Besides, at human OCT1 [1], the “Relative ASP uptake (OCT1-mediated)” value is 67 ± 4%. Moreover, the Cmax in series [6] was 0.015 µM; in series [7] it was 5.2^c [45] ng/mL. In addition, the IC50 at human OCT2 [2] (10 µM ASP, 10 min, 37 °C, seven concentrations) came to 11 µM. The “Relative ASP uptake (OCT2-mediated)” value at human OCT2 [2] (setting [9]) came out at 12.1 ± 0.6%.
In the case of `CCN(CC)CCCC(C)Nc1ccnc2cc(Cl)ccc12` (centres unmarked) [Chloroquine, chloroquine diphosphate], the “Relative ASP uptake (OCT2-mediated)” value on human OCT2 [2] was 48 ± 11%.

B1: human OCT1 (Homo sapiens) (protein)
chain: T1 sequence (O15245 1-554)
notes: host or cells: HEK293, baculovirus transduction (CMV promoter), transient
Consider B1, for which the Km in series [8] is 8.1 µM.

Values taken from article PMC5654082 (Malaria Journal, 2017).
